The text below walks through data of patent US11932600B2, “Biaryl derivative” (DAIICHI SANKYO COMPANY, LIMITED, priority 2018, dated 2024).

Assay [1] deals with plasma ALP (80-90% containing TNAP). Nature of the assay: Inhibitory test of plasma TNAP activity in B6 mouse. In kind it is in vivo. The following applies: 0.3 mg/kg orally in 0.5% methylcellulose, average inhibition from 0 hour to 6 hours after administration, activity before administration = 100%. How it is done: (Test Example 3) Inhibitory Test of Plasma TNAP Activity in B6 Mouse (Charles River Laboratories Japan, Inc.)
After blood sampling from the tail vein using a heparin-treated hematocrit capillary tube (EM Meister Hematocrit Capillary Tube, AS ONE Corp.) (as the sample before compound administration), each test compound suspended in a 0.5% methylcellulose solution (powder purchased from Wako Pure Chemical Industries, Ltd. was adjusted to 0.5% with Otsuka distilled water) was administered orally to the mouse (0.3 mg/kg). 1, 2, 4, 6, and 24 hours after the administration, blood was collected from the tail vein using a heparin-treated hematocrit capillary tube to obtain a plasma sample. The plasma sample was added to an assay buffer (1 M Tris, 1 M MgCl2, 20 mM ZnCl2, and water, pH 7.5), and the mixture was left standing for 5 minutes. Then, the absorbance at 405 nm was measured and used as a blank. The substrate pNPP was added to the plasma sample and incubated at room temperature for 180 minutes. Then, the absorbance (ABS: 405 nm) was measured using a microplate reader (model plus 384, Molecular Devices, LLC), and the concentration of produced p-nitrophenol was calculated. The blank was subtracted from all measurement values to calculate TNAP activity at each time point with the TNAP activity of the sample before compound administration defined as 100%.
It was calculated according to the following expression: 100−((plasma ALP activity at 0 hr+plasma ALP activity at 1 hr)*1/2+(plasma ALP activity at 1 hr+plasma ALP activity at 2 hr)*1/2+(plasma ALP activity at 2 hr+plasma ALP activity at 4 hr)*2/2+(plasma ALP activity at 4 hr+plasma ALP activity at 6 hr)*2/2)/6.

For assay [2], the target named is T1, human TNAP (Homo sapiens, UniProt P05186).
T1 construct: host or cells: COS1 cells, concentrated and dialyzed culture supernatant
T1 sequence (P05186 18-502 limits assumed): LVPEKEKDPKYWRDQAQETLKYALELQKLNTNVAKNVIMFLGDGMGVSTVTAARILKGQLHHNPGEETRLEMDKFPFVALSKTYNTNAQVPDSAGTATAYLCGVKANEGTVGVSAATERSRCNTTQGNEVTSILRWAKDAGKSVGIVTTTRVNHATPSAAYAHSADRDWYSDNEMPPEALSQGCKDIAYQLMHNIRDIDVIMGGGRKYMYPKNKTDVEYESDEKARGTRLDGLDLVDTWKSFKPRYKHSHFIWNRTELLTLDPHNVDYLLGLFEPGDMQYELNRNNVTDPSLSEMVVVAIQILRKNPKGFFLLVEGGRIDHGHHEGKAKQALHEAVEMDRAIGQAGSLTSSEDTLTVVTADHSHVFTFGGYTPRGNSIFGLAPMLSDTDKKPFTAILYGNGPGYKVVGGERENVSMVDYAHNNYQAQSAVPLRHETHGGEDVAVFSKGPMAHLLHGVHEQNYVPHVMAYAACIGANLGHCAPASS
Nature of the assay: Inhibitory test of TNAP activity (pNPP substrate, p-nitrophenol production). Type of assay: biochemical. The following applies: human TNAP from culture supernatant of transfected COS1 cells, 60 minutes at room temperature, ABS 405 nm. On the procedure: <Test Examples> (Test Example 1) Inhibitory Test of TNAP Activity
COS1 cells (DS Pharma Biomedical Co., Ltd.) were transfected with human TNAP (OriGene Technologies, Inc.) using Lipofectamine LTX & Plus reagent (Invitrogen Corp.). On the next day, the medium was replaced with a fresh medium, and the cells were cultured in an incubator for 3 days. After 3 days, the culture supernatant was collected and concentrated by centrifugation at 5000 G for 30 minutes using Amicon 14, 10^4 cut (Merck Millipore). The concentrated culture supernatant was dialyzed against 5 L of 50 mM Tris/200 mM NaCl/1 mM MgCl2/20 μM ZnCl2 twice and used as an enzyme source (enzyme solution). The substrate pNPP (ProteoChem Inc.) was adjusted to 3.1 mM with Milli-Q water, and a solution of each test compound dissolved in dimethyl sulfoxide (DMSO; Wako Pure Chemical Industries, Ltd.) by 6 serial dilutions at a 5-fold common ratio from 100 μM or DMSO was added thereto at a final concentration of 1% by volume. The enzyme solution adjusted to 2 μg/mL with an assay buffer (200 mM Tris/2 mM MgCl2/0.04 mM ZnCl2/0.01% Tween 20) was added in the same amount of the substrate solution and incubated at room temperature for 60 minutes. Then, the absorbance (ABS: 405 nm) was measured using a microplate reader (model plus 384, Molecular Devices, LLC), and the concentration of produced p-nitrophenol was calculated.

As to `CCc1cncc(S(=O)(=O)Nc2c(F)cc(Cl)cc2-c2ccc(OC(C)(C)C(=O)O)cc2)c1` [Example 7, 2-({5′-Chloro-2′-[(5-ethylpyridine-3-sulfonyl)amino]-3′-fluoro[1,1′-biphenyl]-4-yl}oxy)-2-methylpropanoic acid], the “Plasma ALP Inhibition (6 h ave. inhibition %)” value in assay [1] is listed as 69.0%. For the same compound, the IC50 (in general, the concentration that gives 50% inhibition) in assay [2] was found to be 150 pM.
Taken in the same sequence, the figures for `Cc1cncc(S(=O)(=O)Nc2c(F)cc(Cl)cc2-c2ccc(OC(C)(C)C(=O)O)cc2)c1C` [Example 8, 2-({5′-Chloro-2′-[(4,5-dimethylpyridine-3-sulfonyl)amino]-3′-fluoro[1,1′-biphenyl]-4-yl}oxy)-2-methylpropanoic acid] were 76.2% and 150 pM.
Taken in the same sequence, the figures for `CCc1cncc(S(=O)(=O)Nc2c(F)cc(Cl)cc2-c2ccc(CCC(=O)O)cc2)c1` [Example 29, 3-{5′-Chloro-2′-[(5-ethylpyridine-3-sulfonyl)amino]-3′-fluoro[1,1′-biphenyl]-4-yl}propanoic acid] were 70.9% and 180 pM.
The corresponding values for `CC(C)Oc1cncc(S(=O)(=O)Nc2c(F)cc(Cl)cc2-c2ccc(CCC(=O)O)cc2)c1` [Example 30, 3-[5′-Chloro-3′-fluoro-2′-({5-[(propan-2-yl)oxy]pyridine-3-sulfonyl}amino)[1,1′-biphenyl]-4-yl]propanoic acid] are 69.9% and 240 pM.
`Cc1cncc(S(=O)(=O)Nc2c(F)cc(Cl)cc2-c2ccc(CCC(=O)O)cc2)c1C` [Example 31, 3-{5′-Chloro-2′-[(4,5-dimethylpyridine-3-sulfonyl)amino]-3′-fluoro[1,1′-biphenyl]-4-yl}propanoic acid]: the “Plasma ALP Inhibition (6 h ave. inhibition %)” value in assay [1] is 82.2%. The IC50 in assay [2] was 180 pM.
Taken in the same sequence, the figures for `Cc1cncc(S(=O)(=O)Nc2c(F)cc(Cl)cc2-c2ccc(CC(=O)O)cc2)c1` [Example 11, {5′-Chloro-3′-fluoro-2′-[(5-methylpyridine-3-sulfonyl)amino][1,1′-biphenyl]-4-yl}acetic acid] were 79.0% and 140 pM.
